According to patent US20260200885A1, “BENZOPYRONE COMPOUNDS AS WELL AS PREPARATION METHOD THEREFOR AND USE THEREOF” (CHENGDU DI’AO JIUHONG PHARMACEUTICAL FACTORY, priority 2022, published 2026):
Read-outs that look alike come from different tables or passages of the source.

Assays:
A2780 cells = assay: Determination of cell activity (CellTiter-Glo Luminescent Cell Viability Assay); assay type: cell-based; details: Homo sapiens
Procedure: To examine the effect of compounds on cell viability, ATP was directly quantified using the CellTiter-Glo Luminescent Cell Viability Assay (Promega) to determine the number of viable cells.
Cell density was selected based on optimal signal intensity and growth curve for the inoculation of A2780 cells. The cells were incubated at 37° C. and 5% C02 overnight. Cells were treated with blank group, DMSO group and compound group, respectively, at 37° C. and 5% C02 for 7 days. The prepared solutions were added to cell wells according to the instructions of CellTiter-Glo (Promega), and shaken at a speed of 400 g for 2 min. Then, the solutions were centrifuged at 1000 g for 2 min and incubated at rest for 30 min to ensure a complete reaction. […] readings were taken using a multi-label microplate reader (Perkin Elmer) to calculate IC50 values.

[1] = Pharmacokinetic assay in CD1 mice; assay type: in vivo; details: for half-life / AUC(0-inf) / AUC(0-t) / Cmax: mouse, plasma, po; for half-life: intragastric administration 5 mg/kg, Table I-3, read-out: T1/2 (h) for oral administration (converted); for F: bioavailability; for F / T1/2 / AUC(0-inf) / AUC(0-t): Table I-4; for maximum plasma concentration Cmax compared with IMT1B / plasma exposure AUC compared with IMT1B: comparison in words; for T1/2 / AUC(0-inf) / AUC(0-t) / Cmax: main pharmacokinetic parameters; for AUC(0-inf) / AUC(0-t) / Cmax: 5 mg/kg; for Cmax: Table I-4, read-out: Cmax
Procedure: pharmacokinetic assay of compounds was carried out in CD1 mice aged 6-8 weeks with IMT1B as a positive control. The compounds and the positive control were dissolved in 30% aqueous hydroxypropyl-β-cyclodextrin solution containing 25% PEG400 and administered via intravenous injection (1 mg/kg) or intragastric administration (5 mg/kg). Blood samples were collected at 0.033, 0.083, 0.25, 0.5, 1, 2, 4, 8, 24 h and 0.083, 0.25, 0.5, 1, 2, 4, 8, 24 h respectively after administration.
The concentration of the compounds in plasma samples was analyzed using the LC-MS/MS method. Pharmacokinetic calculations were performed using WinNonlin (Phoenix™, version 8.3) or other similar software. The following pharmacokinetic parameters were calculated from the plasma concentration vs. time data: for intravenous administration: T1/2, C0, AUClast, AUCinf, MRTinf, Cl, Vss, regression coefficient, etc.; for oral administration: T1/2, Cmax, Tmax, AUClast, AUCinf, bioavailability, etc. The above parameter data were statistically calculated and described using descriptive statistics such as mean value and standard deviation.

[2] = 168 h, A2780 cells, 7 days treatment, CellTiter-Glo, read-out: IC50

| Structure (SMILES) | IC50 (A2780 cells; [2]) | further results |
| --- | --- | --- |
| C[C@@H](Oc1ccc2c(-c3ccc(F)cc3Cl)cc(=O)oc2c1)C(=O)c1ccccc1C(=O)O [Compound A1-1-1] | 0.1 to 1 µM |  |
| C[C@@H](Oc1ccc2c(-c3ccc(F)cc3Cl)cc(=O)oc2c1)C(=O)c1ccc(C(=O)O)cc1 [Compound A1-1-9] |  | half-life [1]: 3.89 h |
| C[C@@H](Oc1ccc2c(-c3ccc(F)cc3Cl)cc(=O)oc2c1)C(=O)c1ccnc(C(=O)O)c1 [Compound A1-4-5] |  | half-life [1]: 9.73 h |
| C[C@H](Oc1ccc2c(-c3ccc(F)cc3Cl)cc(=O)oc2c1)C(=O)c1ccccc1C(=O)O [Compound A2-1-1] | 0.1 to 1 µM | half-life [1]: 3.54 h |
| C[C@H](Oc1ccc2c(-c3ccc(F)cc3Cl)cc(=O)oc2c1)C(=O)c1cccc(C(=O)O)c1 [Compound A2-1-5] | 0.02 to 0.1 µM | F [1]: 137.555%; maximum plasma concentration Cmax compared with IMT1B [1]: significantly superior to IMT1B; plasma exposure AUC compared with IMT1B [1]: significantly superior to IMT1B; T1/2 [1]: 3.985 h; AUC(0-inf) [1]: 9870 ng·h/mL; AUC(0-t) [1]: 9740 ng·h/mL; Cmax [1]: 1060 ng/mL; half-life [1]: 3.98 h |
| CC(Oc1ccc2c(-c3ccccc3F)cc(=O)oc2c1)C(=O)c1cccc(C(=O)O)c1 (stereo not shown) [Compound A-1-2-1-1] | 0.1 to 1 µM |  |
| CC(Oc1ccc2c(-c3ccccc3Cl)cc(=O)oc2c1)C(=O)c1cccc(C(=O)O)c1 (stereo not shown) [Compound A-1-2-1-2] | 0.02 to 0.1 µM |  |
| CC(Oc1ccc2c(-c3ccccc3Br)cc(=O)oc2c1)C(=O)c1cccc(C(=O)O)c1 (stereo not shown) [Compound A-1-2-1-3] | 0.02 to 0.1 µM |  |
| COc1ccccc1-c1cc(=O)oc2cc(OC(C)C(=O)c3cccc(C(=O)O)c3)ccc12 (stereo not shown) [Compound A-1-2-1-8] | 0.1 to 1 µM |  |
| CNC(=O)c1cccc(C(=O)C(C)Oc2ccc3c(-c4ccc(F)cc4Cl)cc(=O)oc3c2)c1 (stereo not shown) [Compound A-1-2-1-35] | 0.02 to 0.1 µM |  |
| CC(Oc1ccc2c(-c3ccc(F)cc3Cl)cc(=O)oc2c1)C(=O)c1cccc(C(N)=O)c1 (stereo not shown) [Compound A-1-2-1-36] | 0.02 to 0.1 µM |  |
| CC(Oc1ccc2c(-c3ccc(F)cc3Cl)cc(=O)oc2c1)C(=O)c1cccc(S(N)(=O)=O)c1 (stereo not shown) [Compound A-1-2-1-40] | 0.02 to 0.1 µM | half-life [1]: 3.57 h |
| CC(Oc1ccc2c(-c3ccc(F)cc3Cl)cc(=O)oc2c1)C(=O)c1ccccc1 (stereo not shown) [Compound A-1-2-1-70] | 0.02 to 0.1 µM |  |
| CC(Oc1ccc2c(-c3ccc(F)cc3Cl)cc(=O)oc2c1)C(=O)c1cccc(F)c1 (stereo not shown) [Compound A-1-2-1-71] | 0.02 to 0.1 µM |  |
| CC(Oc1ccc2c(-c3ccc(F)cc3Cl)cc(=O)oc2c1)C(=O)c1cccc(Cl)c1 (stereo not shown) [Compound A-1-2-1-72] | 0.1 to 1 µM |  |
| CC(Oc1ccc2c(-c3ccc(F)cc3Cl)cc(=O)oc2c1)C(=O)c1cccc(Br)c1 (stereo not shown) [Compound A-1-2-1-73] | 0.1 to 1 µM |  |
| Cc1cccc(C(=O)C(C)Oc2ccc3c(-c4ccc(F)cc4Cl)cc(=O)oc3c2)c1 (stereo not shown) [Compound A-1-2-1-75] | 0.02 to 0.1 µM |  |
| COc1cccc(C(=O)C(C)Oc2ccc3c(-c4ccc(F)cc4Cl)cc(=O)oc3c2)c1 (stereo not shown) [Compound A-1-2-1-76] | 0.1 to 1 µM |  |
| CC(Oc1ccc2c(-c3ccc(F)cc3Cl)cc(=O)oc2c1)C(=O)c1ccc(N)cc1 (stereo not shown) [Compound A-1-2-1-78] | < 0.02 µM |  |
| CNc1ccc(C(=O)C(C)Oc2ccc3c(-c4ccc(F)cc4Cl)cc(=O)oc3c2)cc1 (stereo not shown) [Compound A-1-2-1-79] | 0.02 to 0.1 µM |  |
| CC(Oc1ccc2c(-c3ccc(F)cc3Cl)cc(=O)oc2c1)C(=O)c1ccc(N(C)C)cc1 (stereo not shown) [Compound A-1-2-1-80] | 0.02 to 0.1 µM |  |
| CC(Oc1ccc2c(-c3ccc(F)cc3Cl)cc(=O)oc2c1)C(=O)c1ccc(O)cc1 (stereo not shown) [Compound A-1-2-1-82] | < 0.02 µM |  |
| CC(=O)Oc1ccc(C(=O)C(C)Oc2ccc3c(-c4ccc(F)cc4Cl)cc(=O)oc3c2)cc1 (stereo not shown) [Compound A-1-2-1-83] | < 0.02 µM |  |
| CC(=O)Nc1ccc(C(=O)C(C)Oc2ccc3c(-c4ccc(F)cc4Cl)cc(=O)oc3c2)cc1 (stereo not shown) [Compound A-1-2-1-84] | < 0.02 µM |  |
| CC(Oc1ccc2c(-c3ccc(F)cc3Cl)cc(=O)oc2c1)C(=O)c1cccc([N+](=O)[O-])c1 (stereo not shown) [Compound A-1-2-1-89] | 0.1 to 1 µM |  |
| CC(Oc1ccc2c(-c3ccc(F)cc3Cl)cc(=O)oc2c1)C(=O)c1cccc(C#N)c1 (stereo not shown) [Compound A-1-2-1-90] | 0.02 to 0.1 µM |  |
| CC(Oc1ccc2c(-c3ccc(F)cc3Cl)cc(=O)oc2c1)C(=O)c1cc(F)cc(C(=O)O)c1 (stereo not shown) [Compound A-1-2-1-93] | 0.02 to 0.1 µM | F [1]: 102.733%; maximum plasma concentration Cmax compared with IMT1B [1]: significantly superior to IMT1B; plasma exposure AUC compared with IMT1B [1]: significantly superior to IMT1B; T1/2 [1]: 11.706 h; AUC(0-inf) [1]: 211000 ng·h/mL; AUC(0-t) [1]: 155000 ng·h/mL; Cmax [1]: 8960 ng/mL; half-life [1]: 11.7 h |
| CC(Oc1ccc2c(-c3ccc(F)cc3Cl)cc(=O)oc2c1)C(=O)c1cc(F)c(O)c(F)c1 (stereo not shown) [Compound A-1-2-1-94] | < 0.02 µM | half-life [1]: 4.57 h |

| Structure (SMILES) | IC50 (A2780 cells; [2]) | further results |
| --- | --- | --- |
| Cc1ccccc1-c1cc(=O)oc2cc(OC(C)C(=O)c3cccc(C(=O)O)c3)ccc12 (stereo not shown) [Compound A-1-2-1-98] | < 0.02 µM |  |
| CC(Oc1ccc2c(-c3ccccc3)cc(=O)oc2c1)C(=O)c1cccc(C(=O)O)c1 (stereo not shown) [Compound A-1-2-1-99] | 0.1 to 1 µM |  |
| Cc1cccc(-c2cc(=O)oc3cc(OC(C)C(=O)c4cccc(C(=O)O)c4)ccc23)c1 (stereo not shown) [Compound A-1-2-1-100] | 0.1 to 1 µM |  |
| CCc1ccccc1-c1cc(=O)oc2cc(OC(C)C(=O)c3cccc(C(=O)O)c3)ccc12 (stereo not shown) [Compound A-1-2-1-101] | 0.1 to 1 µM |  |
| C=Cc1ccccc1-c1cc(=O)oc2cc(OC(C)C(=O)c3cccc(C(=O)O)c3)ccc12 (stereo not shown) [Compound A-1-2-1-103] | 0.1 to 1 µM |  |
| CC(=O)NCCc1ccc(C(=O)C(C)Oc2ccc3c(-c4ccc(F)cc4Cl)cc(=O)oc3c2)cc1 (stereo not shown) [Compound A-1-2-1-104] | < 0.02 µM |  |
| CC(Oc1ccc2cc(-c3ccccc3)c(=O)oc2c1)C(=O)N1CCCC(C#N)C1 (stereo not shown) [Compound A-1-2-2-2] | > 1 µM |  |
| CC(Oc1ccc2c(C3CCCCC3)cc(=O)oc2c1)C(=O)c1cccc(C(=O)O)c1 (stereo not shown) [Compound A-1-2-6-2] | 0.1 to 1 µM |  |
| CC(Oc1ccc2c(-c3cccnc3)cc(=O)oc2c1)C(=O)N1CCCC(C#N)C1 (stereo not shown) [Compound A-1-2-6-23] | > 1 µM |  |
| CC(Oc1ccc2c(-c3ccncc3)cc(=O)oc2c1)C(=O)N1CCCC(C#N)C1 (stereo not shown) [Compound A-1-2-6-24] | > 1 µM |  |
| CC(Oc1ccc2c(-c3ccc(F)cc3Cl)cc(=O)oc2c1)C(=O)C1CCN(C)CC1 (stereo not shown) [Compound A-1-7-1-1] | 0.1 to 1 µM |  |
| CC(Oc1ccc2c(-c3ccc(F)cc3Cl)cc(=O)oc2c1)C(=O)C1CCN(C2CC2)CC1 (stereo not shown) [Compound A-1-7-1-2] | 0.1 to 1 µM | half-life [1]: 3.78 h |
| CC(Oc1ccc2c(-c3ccc(F)cc3Cl)cc(=O)oc2c1)C(=O)C1CCN(C(=O)C(Cl)Cl)CC1 (stereo not shown) [Compound A-1-7-1-3] | 0.02 to 0.1 µM |  |
| CC(Oc1ccc2c(-c3ccc(F)cc3Cl)cc(=O)oc2c1)C(=O)C1CCN(CCO)CC1 (stereo not shown) [Compound A-1-7-1-4] | 0.1 to 1 µM |  |
| CC(Oc1ccc2c(-c3ccc(F)cc3Cl)cc(=O)oc2c1)C(=O)[C@H]1CCCNC1 (stereo partly shown) [Compound A-1-8-1-1] | 0.1 to 1 µM |  |
| CC(Oc1ccc2c(-c3ccc(F)cc3Cl)cc(=O)oc2c1)C(=O)[C@@H]1CCCNC1 (stereo partly shown) [Compound A-1-8-1-2] | 0.1 to 1 µM |  |
| CC(Oc1ccc2c(-c3ccc(F)cc3Cl)cc(=O)oc2c1)C(=O)c1ccc[nH]1 (stereo not shown) [Compound A-1-10-1-4] | 0.1 to 1 µM | half-life [1]: 3.76 h |
| CC(Oc1ccc2c(-c3ccc(F)cc3Cl)cc(=O)oc2c1)C(=O)c1cc[nH]c1 (stereo not shown) [Compound A-1-10-1-5] | < 0.02 µM |  |
| CC(Oc1ccc2c(-c3ccc(F)cc3Cl)cc(=O)oc2c1)C(=O)c1ccoc1 (stereo not shown) [Compound A-1-10-1-6] | 0.02 to 0.1 µM |  |
| CC(Oc1ccc2c(-c3ccc(F)cc3Cl)cc(=O)oc2c1)C(=O)c1ccsc1 (stereo not shown) [Compound A-1-10-1-7] | 0.02 to 0.1 µM |  |
| CC(Oc1ccc2c(-c3ccc(F)cc3Cl)cc(=O)oc2c1)C(=O)C1CCNC1 (stereo not shown) [Compound A-1-10-1-35] | 0.1 to 1 µM |  |
| CC(Oc1ccc2c(-c3ccc(F)cc3Cl)cc(=O)oc2c1)C(=O)C1CCOCC1 (stereo not shown) [Compound A-1-10-1-39] | < 0.02 µM |  |
| CC(Oc1ccc2c(-c3ccc(F)cc3Cl)cc(=O)oc2c1)C(=O)c1ccc2[nH]ccc2c1 (stereo not shown) [Compound A-1-11-1-1] | 0.02 to 0.1 µM |  |
| CC(Oc1ccc2c(-c3ccc(F)cc3Cl)cc(=O)oc2c1)C(=O)c1ccc2c(c1)OCO2 (stereo not shown) [Compound A-1-11-1-10] | 0.1 to 1 µM |  |
| CC(Oc1ccc2c(-c3ccc(F)cc3Cl)cc(=O)oc2c1)C(=O)c1ccc2c(c1)OCCO2 (stereo not shown) [Compound A-1-11-1-13] | 0.1 to 1 µM |  |
| CC(Oc1ccc2c(-c3ccc(F)cc3Cl)cc(=O)oc2c1)C(=O)C12CC3CC(CC(C3)C1)C2 (stereo not shown) [Compound A-1-12-1-27] | 0.1 to 1 µM |  |
| CC(Oc1ccc2c(-c3ccc(F)cc3Cl)cc(=O)oc2c1)C(=O)C1CCN(CC(=O)O)CC1 (stereo not drawn) [α-12] |  | IC50 (A2780 cells; A2780, 168 h): 0.1 to 1 µM |
